Consider one compound from patent publication US12698467B2, “Tissue engineered scaffolds, instrumented bioreactors and methods of use thereof” (President and Fellows of Harvard College, priority 2018, dated 2026).

Entries after “also recorded” stand apart in the source; their conditions may differ.

In test [1] the test system is neonatal rat ventricular myocyte (NRVM) tissue-engineered ventricles. The test is described as follows: β-adrenergic response of tissue-engineered NRVM ventricles by pressure-volume catheterization. It is filed as cell-based. The protocol:
(§1) Intra-ventricular pressure and volume were measured simultaneously using a Millar MPVS-Ultra single segment foundation system for rats with SPR-869NR rat pressure-volume (PV) catheters (ADInstruments, Colorado Springs, CO). Catheter calibration and PV experiments were performed in freshly prepared Tyrode's solution. First, tissue-engineered ventricles were transferred to a 3.5 cm petri dish mounted on a temperature-controlled stage (Warner Instruments, Hamden Conn.) to maintain 35° C. working temperature. Ventricles were sutured to silicone tubing through which catheters were inserted (FIG. 12A). Data acquired at a sampling rate of 2,000 samples per second using manufacturer-supplied acquisition systems (Millar MPVS ultra, ADInstruments LabChart) and was exported for post-processing with custom Matlab scripts (MathWorks, Natick MA).
(§2) Catheter calibration. Catheters were equilibrated at 35° C. prior to use and calibrated for pressure using a manometer (Meriam M2; Meriam Process Technologies, Cleveland, OH) and volume using manufacturer-supplied cuvettes (Millar P/N 910-1048). […] Separate scaffold-specific calibrations were performed, where cell-free scaffolds were inflated and deflated by manual application of pressure through a solution-filled syringe connected to the ventricle through a junction port. […] In some cases, pressure or volume signal noise and drift were reduced by post-processing using Matlab's smooth and polyfit functions (FIG. 12C). Pressure and volume signals were normalized by polynomial background subtraction to reduce unwanted signal drift from large data sets, clarifying frequency-domain analysis of ventricle beat rates over these time periods (FIGS. 13A-13D).
(§3) β-adrenergic response of tissue-engineered ventricles. The contractile response of tissue-engineered ventricles to increasing concentrations of the β-adrenergic agonist isoproterenol was measured as follows. A 100 mM stock solution of isoproterenol (Sigma-Aldrich) containing 110 μM ascorbic acid (Sigma-Aldrich) and 45 μM EDTA (Sigma-Aldrich) was prepared in Tyrode's solution and stored at −20° C. […]

The test system of test [2] is human induced pluripotent stem cell-derived cardiomyocyte (hiPSC-CM) tissue-engineered ventricles. The test is described as follows: β-adrenergic response of tissue-engineered hiPSC-CM ventricles by pressure-volume catheterization. It is filed as cell-based. As for the experimental part: as §1, §2, §3

For the compound `CC(C)NCC(O)c1ccc(O)c(O)c1` (stereo not drawn) [isoproterenol], the “chronotropic response of ventricle beat rate” value in test [1] (NRVM ventricles, 1 e^−10 M to 1 e^−4 M, cumulative doses) is reported as “positive chronotropic response”; in test [2] (hiPSC-CM ventricles, 1 e^−10 M to 1 e^−4 M, cumulative doses), “positive chronotropic response”. Moreover, the “increase of ventricle beat rate” value in test [1] (NRVM ventricles, 10^−4 M isoproterenol, compared to spontaneous baseline (no Iso)) is reported as ~ 40%; in test [2] (hiPSC-CM ventricles, 10^−4 M isoproterenol, compared to spontaneous baseline (no Iso)), ~ 40%. Moreover, the “effect on stroke work (pressure/volume loops)” value in test [1] (rat (NRVM) ventricles, before vs after isoproterenol exposure) is “reduction in stroke work; also recorded: reduced stroke work”; in test [2] (human (hiPSC-CM) ventricles, before vs after isoproterenol exposure) it was “reduction in stroke work; also recorded: reduced stroke work”.
